From patent US8314150B2, “Kinase protein binding inhibitors” (priority 2008, dated 2012)

Tested on: FAK wildtype fibroblasts (MEFs)
Assay: MTT cell viability assay, FAK wildtype vs FAK null fibroblasts
Assay type: cell-based
Details: 72 hours, p<0.05
Procedure: The 3-(4,5-dimethylthiazol-2-yl)-5-(3-carboxymethoxyphenyl)-2-(4-sulfophenyl)-2H-tetrazolium compound from Promega Viability kit (Madison, Ill.) was added, and the cells were incubated at 37° C. for 1-2 hours. The optical density on 96-plate was analyzed with a microplate reader at 490 nm to determine cell viability. In addition, cells were stained with trypan blue after 24 hours of treatment with Y15 and the percent of cells that stained positive were determined with a hemacytometer. Cell adhesion assay—The poly-L-Lysine or Collagen (5 μg/ml) coated 96-well plates were blocked with the blocking buffer (medium with 0.5% BSA) for 1 hour at 37 C. […] Then 2% SDS was added to the dried plated and OD at 590 nm was measured for detecting cell adhesion. […] Protein concentrations were determined using a Bio-Rad Kit. The boiled samples were loaded on Ready SDS-10% PAGE gels (Bio Rad, Inc) and used for Western blot analysis with the protein-specific antibody. […] Detachment Assay—Cells were plated with and without inhibitors for 24 hours, and detached and attached cells were counted in a hemocytometer. We calculated the percent of detachment by dividing the number of detached cells by the total number of cells. The percent of detached cells was calculated in three independent experiments. […] For each experiment 300 cells per treatment were counted. […]

Cl.Cl.Cl.Cl.Nc1cc(N)c(N)cc1N [Y15, 1,2,4,5-benzenetetraamine tetrahydrochloride]
dose from which viability of FAK wildtype fibroblasts decreased compared to FAK null fibroblasts: 0.1 µM
